Assay results as given in article PMC10552892, “Ebselen oxide and derivatives are new allosteric HER2 inhibitors for HER2‐positive cancers” (Molecular Oncology, 2023).

Key:
SKBR3 = assay: Soft agar anchorage-independent growth, SKBR3; type: cell-based, human; details: 10 μM
Description: A bottom layer of 0.8% agarose in DMEM supplemented with 20% FBS and penicillin/streptomycin was added to 24‐well plates before seeding 25.10^3 cells per well in a 0.6% agarose top layer. Cells were treated with a vehicle or with 10 μM ebselen oxide or derivatives. Treatments were renewed 3 times a week. After 6 weeks, colonies were visualized with a phase‐contrast microscope and their number and size were quantified using IMAGEJ software.
Fig. 2 Ebselen oxide inhibits HER2 activation, cell proliferation, and anchorage‐independent growth of HER2^+ breast cancer cells. […] Blot and quantification of a representative experiment are shown out of 4 (A), 5 (B), or 2 (C) independent experiments. (D–F) Proliferation curves of HER2‐positive (SKBR3, D or BT474, E) or HER2‐negative (MDA‐MB‐231, F) breast cancer cell lines treated with vehicle or 10 μM ebselen oxide assessed by MTT assay. […] (G–I) Anchorage‐independent growth of SKBR3 (G), BT474 (H), or MDA‐MB‐231 (I) cells treated with vehicle or 10 μM ebselen oxide. […] Scale bars are […].

HER2 (pY1248) in NCI-N87 = target: T1, HER2 (pY1248) in NCI-N87 (Homo sapiens, UniProt P04626); assay: HER2 activation in NCI-N87 gastric cancer cells, western blot; type: cell-based
T1 construct: host or cells: NCI-N87
T1 sequence (P04626 23-1255): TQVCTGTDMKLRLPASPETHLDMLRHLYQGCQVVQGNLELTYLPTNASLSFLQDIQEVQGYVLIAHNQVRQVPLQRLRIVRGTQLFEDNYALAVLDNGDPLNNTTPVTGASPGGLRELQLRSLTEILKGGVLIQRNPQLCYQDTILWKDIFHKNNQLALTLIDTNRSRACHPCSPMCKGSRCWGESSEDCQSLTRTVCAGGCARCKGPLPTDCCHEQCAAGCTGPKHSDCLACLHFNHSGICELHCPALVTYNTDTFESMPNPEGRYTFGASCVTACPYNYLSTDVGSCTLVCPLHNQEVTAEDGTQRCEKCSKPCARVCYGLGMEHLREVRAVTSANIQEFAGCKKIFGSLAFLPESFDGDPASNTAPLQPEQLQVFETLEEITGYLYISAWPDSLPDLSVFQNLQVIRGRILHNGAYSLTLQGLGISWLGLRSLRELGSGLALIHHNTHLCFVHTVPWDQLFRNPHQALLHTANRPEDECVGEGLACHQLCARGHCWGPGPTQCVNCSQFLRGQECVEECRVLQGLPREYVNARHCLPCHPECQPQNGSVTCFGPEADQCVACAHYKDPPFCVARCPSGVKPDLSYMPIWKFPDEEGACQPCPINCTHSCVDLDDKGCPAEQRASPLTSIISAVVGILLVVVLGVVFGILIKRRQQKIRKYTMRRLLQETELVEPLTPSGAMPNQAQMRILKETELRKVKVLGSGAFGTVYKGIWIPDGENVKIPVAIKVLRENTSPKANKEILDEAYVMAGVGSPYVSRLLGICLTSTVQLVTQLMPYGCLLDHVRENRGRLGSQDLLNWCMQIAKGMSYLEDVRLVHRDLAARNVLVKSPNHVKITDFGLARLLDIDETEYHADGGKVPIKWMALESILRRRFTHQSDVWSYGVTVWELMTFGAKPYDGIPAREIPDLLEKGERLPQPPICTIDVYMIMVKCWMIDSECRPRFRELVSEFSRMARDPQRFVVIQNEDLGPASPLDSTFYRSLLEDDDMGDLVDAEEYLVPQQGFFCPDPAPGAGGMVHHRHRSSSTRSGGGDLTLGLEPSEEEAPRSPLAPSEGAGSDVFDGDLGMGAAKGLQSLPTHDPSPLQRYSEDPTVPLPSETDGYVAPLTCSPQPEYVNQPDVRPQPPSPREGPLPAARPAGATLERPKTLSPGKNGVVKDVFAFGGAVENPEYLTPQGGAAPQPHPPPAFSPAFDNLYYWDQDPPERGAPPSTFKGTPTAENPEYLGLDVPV
Description: (A-C) HER2-positive […] (SKBR3, A; NCI-N87, B; BT474, C) treated or not with Ebselen
indicated, were analyzed by western blot to evaluate HER2 activation status using antibodies directed
Proliferation was assessed by Incucyte during 4 days.

HER2 (pY1248) in SKOV3 = target: T2, HER2 (pY1248) in SKOV3 (Homo sapiens, UniProt P04626); assay: HER2 activation in SKOV3 ovarian cancer cells, western blot; type: cell-based; details: ebselen oxide 0–10 μM 24 h, AG1478 5 μM
T2 construct: host or cells: SKOV3
T2 sequence (P04626 23-1255): as above
Description: Human bone marrow endothelial cells (HBMECs) kindly provided by Dr. B. Weksler (Weill Medical College of Cornell University, NY) were cultured as described previously. The human breast cancer cell lines [SKBR3 (RRID:CVCL_0033), BT474 (RRID:CVCL_0179), and MDA‐MB‐231 (RRID:CVCL_0062)], the human gastric [NCI‐87 (RRID:CVCL_1603)] and ovarian [SKOV3 (RRID:CVCL_0532)] cancer cell lines were obtained from the American Type Culture Collection (Manassas, VA) and were maintained in DMEM containing 10% FBS. All cell lines were cultured under 5% CO2 at 37 °C. HBMECs were transfected using Amaxa Inc nucleofector system (Kit V and U015 program). […]
Fig. 3 Ebselen oxide inhibits HER2 activation and HER2‐dependent proliferation in gastric and ovarian HER2^+ cancer cells. (A) HER2‐positive NCI‐87 gastric cancer cells were treated with ebselen oxide (0–20 μM) for 24 h, lysed, and analyzed by western blot using anti‐pY1248‐HER2, HER2, and β‐tubulin antibodies. […] (B) HER2‐positive SKOV3 ovarian cancer cells were treated with ebselen oxide (0–10 μM) for 24 h, lysed, and analyzed by western blot using anti‐pY1248‐HER2, HER2, and ezrin antibodies. […] (C, D) Proliferation curves of NCI‐N87 gastric (C) or SKOV3 ovarian (D) cancer cells treated with vehicle or 7–10 μM ebselen oxide measured by MTT assay. […]

Structure (SMILES): O=C1c2ccccc2[Se](=O)N1c1ccccc1 (stereo not shown) [Ebselen oxide, ebselen oxide]
- Reduction in the size of micro-colonies (SKBR3): more than 40%
- Effect on HER2 activation (HER2 (pY1248) in NCI-N87; ebselen oxide 0–20 μM 24 h, AG1478 5 μM): strongly blocked
- Effect on HER2 activation, single agents and combination (HER2 (pY1248) in NCI-N87; ebselen oxide 10 μM, lapatinib 10 nM): partially decreased
- Effect on HER2 activation (HER2 (pY1248) in SKOV3): strongly blocked
